Measured values: patent US20150030542A1, “METHODS FOR MEDICAL IMAGING” (priority 2013, published 2015)

Assays:
[1] = in vivo, cited from earlier work
chest and breast tumors = experiment: Pilot patient study: intraoperative in vivo/in situ NIR imaging of tumor fluorescence
Experimental: Between January and June 2012, 27 consecutive patients who were candidates for surgical removal of chest and breast tumors were enrolled in this study (Table 1). Patients were given a single peripheral vein injection of 5 mg/kg ICG, 24 hours prior to surgery. […] Their ages ranged from 31 to 78 years (median=65 years). […] All enrolled patients were thought to have limited disease, amenable to surgery, and had no metastases (ie. potentially curable). […] Preoperative computed axial and positron emission tomography and/or magnetic resonance imaging predicted no metastatic disease in each case. The median tumor size was 2.0 cm (range 0.6-13.0 cm) on preoperative imaging. Each patient had serum obtained before and 24 hours after ICG injection.
To determine if indocyanine green would be delivered to human tumors, patients undergoing cancer surgery were first imaged in vivo at the onset of the operation. At the time of surgery, the chest was opened and inspected by standard visualization and manual palpation. […] A dual camera head with a brightfield and a NIR output was then used to visualize tumor fluorescence (FIG. 7). […] Attempts to quantitate tumor fluorescence in vivo were not feasible for several reasons including variations in operating room conditions, lack of miniaturized tissue spectrometer with safe laser light source and the inability to control for changes in distance from the specimen to the tip of the spectrometer. […] All quantitative measurements were made later ex vivo once the specimen had been removed. To examine in vivo data on the distribution of ICG, a complete visual examination of the each patients' skin, muscles (lattismus dorsi, serratus anterior, intercostal, diaphragm), pericardium and heart, aorta, normal lung, lymph nodes, adipose tissues, nerves (phrenic, intercostal), and thymus was performed whenever possible.
Thus, prior to closing the body cavity but after the tumor was removed, the chest or breast was inspected visually and by manual palpation for sites of cancer metastases. […] Then, to validate the surgeons' clinical decision, the chest was imaged for NIR fluorescence.
The other application of tumor fluorescence during surgery was to confirm that resection was complete and that no tumor cells were left behind in the surgical field. Thus, once the surgeons had completed each case and decided they had obtained disease clearance at the surgical site, the surgical wound and resection field was imaged.

[2] = cited from earlier work
human tumors [3] = experiment: Ex vivo analysis of tumor fluorescence of resected specimens (NIR imaging, hand-held spectrometer); format: in vivo
Excerpt: Following in vivo imaging, the patients then underwent a standard-of-care surgical resection of the tumor. Once removed from the patient, the specimen was examined, opened, biopsied and analyzed ex vivo (FIG. 2a). Every case was photo-documented both by brightfield imaging and NIR imaging. […] Then, the hand held spectrometer was used to semi-quantitate tissue fluorescence. Each tumor had 4 measurements at four perpendicular locations and the center of the tumor (total of 20 measurements/tumor). Mean fluorescence in the human tumors was 53,304±4193 au in 25 out of 27 masses (93%) (FIG. 2b). We conjectured that the center of the tumor might be less fluorescent than the periphery due to necrosis or, conversely, that the center of the tumor might be more fluorescent than the periphery due to increased ICG retention. We found neither to be true. The fluorescence from the tumors was remarkably homogeneous throughout the tumor. We believe this reflects “bleed over” of the fluorescent signal from different areas of the tumor surface. The quality of the image was subjectively better ex vivo than in vivo due to the lack of respiratory motion, light artifact and glare from surrounding tissue retractors. Depending on the different tissues removed from each patient as part of the standard operation, a thorough spectroscopic examination was performed. The average signal diminished from over 50,000 au at the tumor margin to less than 12,000 au within 2 mm of the gross tumor margin. There were some higher signals in areas of atelectatic lung (range 0 to 24,832 au), however, this could easily be distinguished from the tumor by manual palpation. The background signal was measured from the patients' skin, muscles (latissmus dorsi, serratus anterior, intercostal), pericardium, normal lung, lymph nodes, adipose tissues, nerves (intercostal), airway and thymus whenever safely possible (FIG. 2b).
There were 25 cancers and 2 non-cancers (aspergilloma and pulmonary infarct). The two masses that were not fluorescent were a metastatic melanoma (7,342±411 au) and a pulmonary infarct (hematoma, 8,002±554 au). The aspergillus ball, a localized fungus infection, was fluorescent (58,209±1,302 au) likely due to the strong inflammatory reaction surrounding it. […] The pulmonary infarct or hematoma was an old clot secondary to trauma in a person that had been mistaken for a cancer on preoperative imaging. […]

[4] = Semi-quantification of ICG concentration in plasma (fluorometry); format: in vivo, human
Experimental: Techniques have been previously described to use fluorometry to quantify concentrations of ICG in plasma. We obtained aliquots of each patient's blood before injection with ICG. These samples were spun down at 1100 RPM for 10 minutes and aliquots of plasma were removed. 2 mg of ICG was dissolved in 1 ml of plasma and serially diluted thirteen times to a concentration of 125 μg per liter. 100 microliters of each of these dilutions were pipetted into a separate wells in a standard black 96 well plate along with one well of 100 microliters of plasma without ICG. At the time of operation, each patient had their plasma obtained and serially diluted six times to a final ratio of 1:1000. Plates were examined using a SpetraMax Fluorometer® with a peak excitation of 805 nm and 830 nm. Each well was scanned 6 times. Readings were export as Microsoft Excel® spread sheets.

human tumors [5] = experiment: Semi-quantification of ICG concentration in tumors (imaging beside ICG standard panel); format: in vivo
Experimental: To quantify the concentration of ICG in the resected tissues, normal (control) and cancerous tissues were imaged ex vivo alongside a standard control panel of known concentrations of ICG aliquots mixed with plasma from the same patient. Our system was able to detect concentrations between 0 μg/ml and 2000 μg/ml. […] However, in the tumors, there was a broad range of ICG concentration. In 9 of the 10 specimens, the ICG concentration ranged from 2 to 100 μg/ml (FIG. 3c). No tumor fluoresced above an ICG concentration of 100 μg/ml. However, from a subjective point-of-view, the surgeon was not able to identify any tumors as more or less fluorescent. One cancer (metastatic melanoma) had less than 1 μg/ml of ICG and was not subjectively fluorescent to the surgeon. We also attempted to measure ICG concentration in the tissue by homogenizing punch biopsies and measuring fluorescence in a standard desk fluorometer, however, this approach was unreliable.
To quantify the maximum concentration of ICG in each tumor, 10 patients had their plasma collected at the time of operation. Two mg of ICG was dissolved in 1 ml of plasma and serially diluted 8 times to a final ratio of 1:20,000. 100 μL of stock solution and each dilution was then placed in consecutive wells in a black 96 well plate. When tumors were imaged ex-vivo, this plate was concurrently imaged. These images were then imported into ImageJ® software. Region of interest (ROI) data was taken from each of the 9 wells and from the tumor. The maximum fluorescent signal from the tumor was compared to the wells to determine the highest concentration per tumor. Each tumor was then categorized as have an ICG concentration between given the standards in the known panel.

Lewis Lung Cancer (LLC) = experiment: NIR detection of flank tumors and pulmonary metastases in the LLC mouse model
Experimental: (§1) Preclinical evidence for NM tumor labeling to detect primary and metastatic tumor deposits. (A) Six cancer cell types were injected into the flank of syngeneic mice. Once established (200 mm3), animals were dosed with 7.5 mg/kg of ICG and imaged. Tumors were harvested, imaged and stained for CD31. Histology images taken at 200× magnification (B) C57bl/6 mice (n=21) were injected with LLC cells in their flanks on Day 0. Starting on Day 12, the animals were euthanized, dosed with 7.5 mg/kg ICG 20 hours earlier and their thoracic cavities opened. Observers determined if the metastatic tumor nodules were visible in the lung. NIR imaging was then used to detect disease that was not visible to the un-assisted human eye.
Starting on Day 12, mice (n=9) were injected with 7.5 mg/kg of ICG via tail vein every three days. […] Subsequently, the chest was opened and inspected for NIR emission from pulmonary metastases.
Female C57BL/6 (B6, Thy1.2), BALB/c, athymic Ncr-nu/nu and B6-12931 hybrid mice mice were purchased from Charles River Laboratories and Jackson Laboratories. All mice were maintained in pathogen-free conditions and used for experiments at ages 8 week or older. […] Tumor cells for subcutaneous injections were suspended in 100 μL PBS. Tumor volume was calculated using the formula (π×long-axis×short-axis^2)/6.
Pharmaceutical grade indocyanine green (ICG) was purchased from Akorn Pharmaceuticals (Lake Forest, Ill.). Mice received 7.5 mg/kg ICG via tail vein 20 hours prior to surgery.
A hand-held near infrared spectrometer has been previously described in detail.^18 In brief, a Raman probe detector was incorporated into a cylindrical stainless steel sampling head integrated with a 5 m, two-fiber cable; one for laser excitation and the other for light collection. The sampling head and fiber cable were coupled via an FC connector to a spectrometer. The combined sampling head and spectrometer system has a wavelength range of 800-930 nm with 0.6 nm spectral resolution for near infrared (NIR) fluorescence measurement. […] The signal can be semi-quantitated from 0 to 60,000 arbitrary units (au).

[6] = tested on: 4T1 breast cancer, TC1 lung cancer, EL4 thymoma, AE17 mesothelioma, AKR esophageal cancer flank tumors; experiment: NIR labeling of syngeneic flank tumors in mice with systemic ICG (tissue spectrometer); conditions: 7.5 mg/kg ICG via tail vein, next day, flank tumors ~200 mm^3, five cell lines
Experimental: as §1
After the tumors were well established (˜200 mm^3), 7.5 mg/kg of ICG was administered via the tail vein. The next day, a tissue spectrometer was used to semi-quantitate fluorescence from the tumor, surrounding tissue and 12 organs. […] Tumors were harvested, sectioned and assayed for microvessel density to determine if there was a correlation between tumor vascularity and fluorescence (FIG. 1a).
All mice were maintained in pathogen-free conditions and used for experiments at ages 8 week or older. […] Tumor cells for subcutaneous injections were suspended in 100 μL PBS. Tumor volume was calculated using the formula (π×long-axis×short-axis^2)/6. […]

[7] = ex vivo spectroscopic examination

Compound: CC1(C)C(/C=C/C=C/C=C/C=C2\N(CCCCS(=O)(=O)[O-])c3ccc4ccccc4c3C2(C)C)=[N+](CCCCS(=O)(=O)[O-])c2ccc3ccccc3c21.[Na+] [ICG, indocyanine green]
- fraction of ICG binding to serum proteins (albumin, lipoproteins) upon injection into the blood [1]: 95%
- cancer cases in which fluorescence identified unrecognized metastatic tumor deposits (chest and breast tumors; 2 patients, sites greater than 5 cm from primary tumor, confirmed by frozen biopsy): 8%
- cases in which dual camera head could detect tumor fluorescence in vivo (chest and breast tumors; 16 out of 27 cases, 5 mg/kg ICG 24 hours prior to surgery): 59%
- fluorescence of three metastatic sites in right lower pulmonary lobe (chest and breast tumors; Patient #2): > 48,000 au
- smallest metastatic nodule detected, diameter (chest and breast tumors; Patient #2): 0.4 mm
- mean fluorescence of breast mass in the operating room (chest and breast tumors; Patient #24, infiltrative ductal carcinoma): 52,748 au
- in vivo fluorescence of normal tissues (skin, muscles, pericardium, heart, aorta, lung, lymph nodes, adipose, nerves, thymus) (chest and breast tumors; all cases, visual examination): no tissue fluorescence except the abnormal tumor
- deepest tumor that could be detected, distance from the surface of the organ (chest and breast tumors; in vivo NIR imaging): ~1 cm
- Clinical Details: lesion fluorescence (chest and breast tumors; per case): Benign lesion did not glow.
- known toxicity of the agent ([2]; Indocyanine Green for Injection USP): no known toxicity
- masses with strong fluorescence, qualitative NIR imaging (human tumors [3]; 25 out of 27 masses, ex vivo): 92%
- mean fluorescence in the human tumors (human tumors [3]; 25 out of 27 masses, ex vivo hand held spectrometer): 53,304±4193 au
- fluorescence of non-fluorescent metastatic melanoma (human tumors [3]; ex vivo): 7,342±411 au
- mean fluorescence of highly fluorescent melanoma (human tumors [3]; ex vivo): 57,210 au
- mean fluorescence of minimally fluorescent melanoma in a different patient (human tumors [3]; ex vivo): 7,332 au
- signal in areas of atelectatic lung (range) (human tumors [3]; ex vivo): 0 to 24,832 au
- average signal at the tumor margin (human tumors [3]; [7]): over 50,000 au
- average signal within 2 mm of the gross tumor margin (human tumors [3]; [7]): less than 12,000 au
- fluorescence of aspergillus ball (human tumors [3]; ex vivo, localized fungus infection): 58,209±1,302 au
- fluorescence of pulmonary infarct (hematoma) (human tumors [3]; ex vivo, non-cancer): 8,002±554 au
- background signal in surrounding tissue in the body cavity (human tumors [3]; skin, muscles, pericardium, normal lung, lymph nodes, adipose, nerves, airway, thymus): no evidence of background signal
- ICG in patient's plasma 24 hours after ICG injection ([4]; SpetraMax Fluorometer): No measurable ICG
- ICG in plasma after 20 hours ([4]; patients, 5 mg/kg ICG peripheral vein, fluorometric interrogation of serum): no patient had detectable ICG
- ICG concentration in tumors (human tumors [5]; 9 of the 10 specimens, ex vivo): 2 to 100 µg/mL
- ICG concentration in control tissues of normal lung (human tumors [5]; ex vivo, 5 mg/kg ICG): undetectable
- ICG concentration in metastatic melanoma (human tumors [5]; one cancer, not subjectively fluorescent): less than 1 μg/ml
- earliest day NIR signal from pulmonary metastases detected (Lewis Lung Cancer (LLC); LLC injected Day 0, 7.5 mg/kg ICG, deposits not visible to un-assisted eye): 15 days
- smallest pulmonary metastatic deposit detected (Lewis Lung Cancer (LLC); by histology): 0.4 mm
- background fluorescence (mean) (Lewis Lung Cancer (LLC); murine lung): 4290 au
- mean fluorescence from the tumor [6]: 54,238 au
- patients upstaged by intraoperative imaging of fluorescent tumors (2 out of 27 patients): 7.4%
- toxicities, adverse events or deaths related to injection of ICG (27 patients, 5 mg/kg ICG): no obvious toxicities, adverse events or deaths

Compound: CN1C(=CC=C2CCCC(C=CC3=[N+](C)c4ccccc4C3(C)C)=C2Cl)C(C)(C)c2ccccc21.[O-][Cl+3]([O-])([O-])[O-] [IR-786]
- clearance after intravenous injection ([1]; iv): rapidly extracted into many tissues in the body, especially the liver, and is inefficiently transported into bile

Compound: CN(C)c1ccc2nc3ccc(=[N+](C)C)cc-3sc2c1 [MB, methylene blue]
- adverse reactions ([2]; 7.5 mg/kg, e.g. methemoglobinaemia or anaphylaxis): sometimes causes severe adverse reactions
